Measured values: patent publication US20250213560A1, “NITROGEN-CONTAINING HETEROCYCLIC COMPOUNDS HAVING PHENYL GROUP AND USES THEREOF” (BNH RESEARCH CO., LTD., priority 2022, published 2025)

Tests used:
[1] = test system: 293T cells; assay: Cytotoxicity test (CCK-8 cell viability) in 293T cells; assay type: cell-based, human; conditions: 293T cell line
Description: Human undifferentiated neuroblastoma cell line SH-SY5Y and human embryonic kidney cell line (HEK)-293T were purchased from Korean Cell Line Bank (Korea) and Takara (Japan), respectively. Cells were grown in HyClone Minimal Essential Medium (MEM) and Dulbecco's Modified Eagle Medium (DMEM), respectively, supplemented with 10% (v/v) fetal bovine serum (FBS), penicillin (100 U/mL), and streptomycin ([…]). Cells were maintained in a humidified atmosphere of 95% air and 5% CO2 at 37° C. Cells were passaged 10 times at maximum. Cells were dissociated using 0.05% trypsin-EDTA solution and the cells were seeded in new culture dishes for maintenance.
To examine the cytotoxicity of compounds described herein in human cell lines, SH-SY5Y and 293T cells were used. Approximately 8,000 cells (for 293T) and 15,000 cells (for SH-SY5Y) were plated per well of a 96-well plate (SPL Life Sciences Co., Ltd., Pocheon, Korea). After incubating at 37° C. for 24 hours in a humidified atmosphere containing 5% CO2, the culture medium was replaced by a series of concentrations of test compounds diluted in the corresponding culture medium.
The time of co-incubation was 24 hours and six replicates were made for each measurement. Finally, 10 μL of CCK-8 reagent (Dojindo Laboratories, Rockville, MD) was added to each well, and after incubation at 37° C. for 3 minutes, the OD at 450 nm was measured using a multifunction microplate reader (Tecan Infinite M200 Pro). These measurements were compared to that of a control and expressed as a percentage of the control to calculate cell viability. The IC50 value was calculated using SPSS software. To do this, the absorbance of the blank wells with only growth medium is subtracted from the values or the wells with cells. The readout value of background (vehicle) was set as a 100% viability, and then the percent viability for each test solution was calculated.
The data was presented as the mean value and standard error of the mean (S.E.M.). Statistical analysis was performed with the one-way ANOVA with Tukey's post hoc test (GraphPad Prism 5 software package, version 5.02, GraphPad Software Inc. USA). Significance was accepted at p<0.05.
The cytotoxicity of the compound was evaluated by treating cells with BnH12003 and measuring cell viability.
By treating cells with various BnH12 series compounds and measuring cell viability using the experimental procedure described in Example 2, the cytotoxicity of the compounds was evaluated.

[2] = test system: GluN2B; assay: GluN2B protein expression by Western blot in primary cortical neuron cells; assay type: cell-based, mouse; conditions: for Western blot results Mean (GluN2B expression): relative value, vehicle set to 1, primary cortical neurons treated for 24 hours; for GluN2B expression effect (in words): compared to vehicle / other compounds, Table 5
Description: Meanwhile, primary cortical neuron cells were isolated from cerebral cortices of 18-day-old mouse fetuses, incubated in prep media (composition (mM): NaCl 107.5, NaH2PO4 1, NaHCO333.5, glucose 11, HEPS 1%, penicillin-streptomycin 1%) containing 0.25% trypsin and DNasel for 30 minutes, dissociated into single cells, and seeded. Primary cortical neuron cells were grown in Neurobasal medium supplemented with 1% (v/v) B27, 1% penicillin (100 U/mL), streptomycin ([…]), and 1% Glutamax. Cells were maintained in a humidified atmosphere of 95% air and 5% CO2 at 37° C. Drug efficacy was evaluated after culturing primary cortical neuron cells for 14 days.
The amount of GluN2B reacted with the compound of the present disclosure was measured using Western blot. The fetal cerebral cortex was extracted from mice at 17 days of gestation, dissociated into single cells, cultured for 13 days, and treated with BnH drugs for 24 hours. The drug-treated cells were subjected to protein lysate preparation using RIPA protein lysis buffer containing protease and phosphatase inhibitors. The protein concentration was determined using a BCA protein assay kit (Pierce Biotechnology) using bovine serum albumin as a standard. Equal amounts of protein (20 μg per lane) were separated by electrophoresis on SDS-polyacrylamide gels at 90 V for 2 hours, then transferred from the SDS-polyacrylamide gel to PVDF membrane at 100 V for 1 hour. Then, primary reaction with GluN2B antibody (ab65783, Abcam) was performed at 4° C. for 1 day, washed three times at 10-minutes intervals with 1×PBT, and secondary reaction was performed with anti-mouse antibody (sc-2357, Santa Cruz) for 1 hour, followed by washing three times at 10-minutes intervals with 1×PBT. Western blotting was performed as described above to confirm GluN2B protein expression. Subsequently, each blot was re-probed using anti-β-actin antibody (sc-47778, Santa Cruz). Housekeeping protein B-actin was detected as a normalization control.
The increase and decrease of BnH12 series were confirmed by setting the vehicle to 1 (N for each group was 3 or more).
Using the experimental procedure described in Example 3, it was determined whether various BnH12 series compounds increase GluN2B expression, and the results are shown in Table 5. These in vitro experimental results are expressed as relative values to the group (vehicle) that was not treated with the compound, with the effect of the group set to 1.

Row | SMILES | Cell viability test results (CCK) 10 uM [1] [%<] | Cell viability test results (CCK) 100 uM [1] [%<] | Western blot results Mean (GluN2B expression) [2] | GluN2B expression effect (in words) [2]
1 | C[C@H]1CC[C@@H](C(=O)O)CN1C(=O)Cc1ccc(-c2ccc(-c3cccnc3)cc2)cc1 [BnH12089, (3R,6S)-6-methyl-1-(2-(4'-(pyridin-3-yl)-[1,1'-biphenyl]-4-yl)acetyl)piperidine-3-carboxylic acid] | 65 | 55 | 1.409 | –
2 | C[C@H]1CC[C@@H](C(=O)O)CN1C(=O)Cc1cccc(-c2ccncc2)c1 [BnH12091, (3R,6S)-6-methyl-1-(2-(3-(pyridin-4-yl)phenyl)acetyl) piperidine-3-carboxylic acid] | 95 | 85 | 5.013 | excellent effects
3 | C[C@H]1CC[C@@H](C(N)=O)CN1C(=O)Cc1ccc(-c2ncccn2)cc1 [BnH12058, (3R,6S)-6-methyl-1-(2-(4-(pyrimidin-2-yl)phenyl)acetyl) piperidine-3-carboxamide] | 99 | 90 | 1.54 | –
4 | C[C@H]1CC[C@@H](C(=O)O)CN1C(=O)Cc1cccc(-c2ccccc2)c1 [BnH12078] | 90 | 75 | 1.017 | –
5 | COc1ccc(-c2cccc(CC(=O)N3C[C@H](C(=O)O)CC[C@@H]3C)c2)cn1 [BnH12092, (3R,6S)-1-(2-(3-(6-methoxypyridin-3-yl)phenyl)acetyl)-6-methylpiperidine-3-carboxylic acid] | 90 | 75 | 3.524 | excellent effects
6 | C[C@H]1CC[C@@H](C(=O)O)CN1C(=O)Cc1ccc(-c2nccn2C)cc1 [BnH12053, sodium (3R,6S)-6-methyl-1-(2-(4-(1-methyl-1H-imidazol-2-yl)phenyl)acetyl) piperidine-3-carboxylate] | 95 | 95 | 1.652 | –
7 | C[C@H]1CC[C@@H](C(=O)O)CN1C(=O)Cc1ccc(-c2cccc([N+](=O)[O-])c2)cc1 [BnH12072, (3R,6S)-6-methyl-1-(2-(3′-nitro-8 1,l′-biphenyl9-4-yl)acetyl) piperidine-3-carboxylic acid] | 90 | 80 | 1.822 | –
8 | C[C@H]1CC[C@@H](C(=O)O)CN1C(=O)Cc1ccc(-c2cccc(N)c2)cc1 [BnH12088, (3R,6S)-1-(2-(3′-amino-8 1,l′-biphenyl9-4-yl)acetyl)-6-methylpiperidine-3-carboxylic acid] | 90 | 90 | 1.219 | –
9 | C[C@H]1CC[C@@H](C(=O)O)CN1C(=O)Cc1cccc(-c2ncc(F)cn2)c1 [BnH12093, (3R,6S)-1-(2-(3-(5-fluoropyrimidin-2-yl)phenyl)acetyl)-6-methylpiperidine-3-carboxylic acid] | 85 | 80 | 1.611 | –
10 | C[C@H]1CC[C@@H](C(=O)O)CN1C(=O)Cc1ccc(-c2ccc(C3CCCCC3)cc2)cc1 [BnH12085, (3R,6S)-1-(2-(4′-cyclohexyl-8 1,l′-biphenyl9-4-yl)acetyl)-6-methylpiperidine-3-carboxylic acid] | 30 | 0 | 1.557 | –
